Laboratory results reported in patent US9079913B2, “Spiro-oxindole MDM2 antagonists” (The Regents of the University of Michigan, priority 2009, dated 2015).
Read-outs that look alike come from different tables or passages of the source.

Tests used:
[1] = system: Isogenic HCT-116 colon cancer cell lines; test: cells; type: cell-based; conditions: Homo sapiens, cell growth;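 also: cells grown in 96-well plates in McCoy's 5A medium with 10% FBS, exposed to compound for 4 days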
Method: Cells were seeded in 96-well flat bottom cell culture plates at a density of 2−3×10^3 cells/well with compounds and incubated for 4 days.

[2] = system: cancer cell lines with wild-type p53 / mutated or deleted p53 (ATCC); test: Cell growth assay (WST-8), other cancer cell lines; type: cell-based; conditions: Homo sapiens
[3] = In vitro microsomal stability, rat; type: in vitro ADME; conditions: for Microsomal stability, % remaining: Rat Microsome, same batch; for microsomal stability (in words) / % of compound remaining when incubated in rat liver microsomes with NADPH: rat liver microsomes; for half-life: rat, liver microsomes, rat liver microsomes with NADPH
[4] = Pharmacokinetic studies in rats; type: in vivo, rat; conditions: for oral bioavailability / oral pharmacokinetics in rats (in words): oral dosing; for bioavailability / half-life / AUC(0-t) / Cmax: rat, plasma, male rats, oral dose 15 mg/kg; for AUC(0-t): read-out: AUC(0-t); for Cmax: read-out: Cmax
Method: Pharmacokinetic studies on MDM2 inhibitors were carried out in rat. For comparison, the MDM2 inhibitor, AT-219, was also studied.

[5] = biological target: recombinant human His-tagged MDM2 protein (residues 1-118) (Homo sapiens (Human), UniProt Q00987); test: Fluorescence-polarization MDM2 binding assay; conditions: Table 19A; FP binding assay; read-out: MDM2 IC50;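 also: fluorescence polarization read after three hours of incubation in potassium phosphate buffer containing bovine gamma globulin and Triton X-100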
[6] = In vitro microsomal stability, human; type: in vitro ADME; conditions: for Microsomal stability, % remaining: Human Microsome, same batch; for half-life: human, liver microsomes, human liver microsomes with NADPH
[7] = HCT-116, read-out: HCT-116 (p53-/-) IC50, Table 19A, HCT-116 p53-/-
[8] = HCT-116, read-out: HCT-116 (p53 wild-type) IC50, Table 19A, HCT-116 p53 wild-type
[9] = LNCaP, Table 19A, LNCAP cells, p53 wild-type, cell growth, read-out: LNCAP (p53 wild-type) IC50
[10] = PC-3, Table 19A, PC-3 cells, deleted p53, cell growth, read-out: PC-3 (deleted p53) IC50

Chain of recombinant human His-tagged MDM2 protein (residues 1-118) (Q00987 1-118): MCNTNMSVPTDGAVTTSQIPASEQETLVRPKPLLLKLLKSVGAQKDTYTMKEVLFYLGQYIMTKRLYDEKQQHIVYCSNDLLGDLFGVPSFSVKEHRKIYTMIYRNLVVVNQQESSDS

## CC(C)(C)C[C@H]1N[C@@H](C(=O)NCC[C@H](O)CN2CCCC2)[C@H](c2cccc(Cl)c2)[C@@]12C(=O)Nc1cc(Cl)c(F)cc12 [MI-519-28]
[1]; [7]
  IC50: > 5 µM
[1]; [8]
  IC50: < 2 µM
[2]; [9]
  IC50: < 2 µM
[2]; [10]
  IC50: 4.1 ± 0.2 µM
[3]; 0 min
  Microsomal stability, % remaining: 100.00%
  % of compound remaining when incubated in rat liver microsomes with NADPH: 100.00%
[3]; 5 min
  Microsomal stability, % remaining: 92.34%
  % of compound remaining when incubated in rat liver microsomes with NADPH: 92.34%
[3]; 10 min
  Microsomal stability, % remaining: 87.59%
  % of compound remaining when incubated in rat liver microsomes with NADPH: 87.59%
[3]; 15 min
  Microsomal stability, % remaining: 86.13%
  % of compound remaining when incubated in rat liver microsomes with NADPH: 86.13%
[3]; 30 min
  Microsomal stability, % remaining: 71.97%
  % of compound remaining when incubated in rat liver microsomes with NADPH: 71.97%
[3]; 45 min
  Microsomal stability, % remaining: 65.40%
  % of compound remaining when incubated in rat liver microsomes with NADPH: 65.40%
[3]; 60 min
  Microsomal stability, % remaining: 61.79%
  % of compound remaining when incubated in rat liver microsomes with NADPH: 61.79%
[3]
  microsomal stability (in words): improved stability over MI-219
  half-life: 1.24 h
[4]
  oral bioavailability / oral pharmacokinetics in rats (in words): much inferior oral pharmacokinetic parameters
  bioavailability: 8.4%
  half-life: 1.6 ± 0.2 h
  AUC(0-t): 419 ± 239 µg·h/mL
  Cmax: 102 ± 46 ng/mL
[5]
  IC50: < 2 µM
[6]; 0 min
  Microsomal stability, % remaining: 100.00%
[6]; 5 min
  Microsomal stability, % remaining: 91.87%
[6]; 10 min
  Microsomal stability, % remaining: 89.02%
[6]; 15 min
  Microsomal stability, % remaining: 77.40%
[6]; 30 min
  Microsomal stability, % remaining: 66.83%
[6]; 45 min
  Microsomal stability, % remaining: 55.85%
[6]; 60 min
  Microsomal stability, % remaining: 53.78%
[6]; human liver microsomes
  microsomal stability (in words): improved stability over MI-219
[6]; human liver microsomes, 0 min
  % of compound remaining when incubated in human liver microsomes with NADPH: 100.00%
[6]; human liver microsomes, 5 min
  % of compound remaining when incubated in human liver microsomes with NADPH: 91.87%
[6]; human liver microsomes, 10 min
  % of compound remaining when incubated in human liver microsomes with NADPH: 89.02%
[6]; human liver microsomes, 15 min
  % of compound remaining when incubated in human liver microsomes with NADPH: 77.40%
[6]; human liver microsomes, 30 min
  % of compound remaining when incubated in human liver microsomes with NADPH: 66.83%
[6]; human liver microsomes, 45 min
  % of compound remaining when incubated in human liver microsomes with NADPH: 55.85%
[6]; human liver microsomes, 60 min
  % of compound remaining when incubated in human liver microsomes with NADPH: 53.78%
[6]
  half-life: 0.902 h

## CC(C)(C)C[C@H]1N[C@@H](C(=O)NCC[C@H](O)CNC(C)(C)C)[C@H](c2cccc(Cl)c2)[C@@]12C(=O)Nc1cc(Cl)c(F)cc12 [MI-519-24]
[1]; [7]
  IC50: 6.5 ± 0.7 µM
[1]; [8]
  IC50: < 2 µM
[2]; [9]
  IC50: < 3 µM
[2]; [10]
  IC50: 3.7 ± 0.2 µM
[3]; 0 min
  Microsomal stability, % remaining: 100.00%
  % of compound remaining when incubated in rat liver microsomes with NADPH: 100.00%
[3]; 5 min
  Microsomal stability, % remaining: 102.16%
  % of compound remaining when incubated in rat liver microsomes with NADPH: 102.16%
[3]; 10 min
  Microsomal stability, % remaining: 86.33%
  % of compound remaining when incubated in rat liver microsomes with NADPH: 86.33%
[3]; 15 min
  Microsomal stability, % remaining: 75.72%
  % of compound remaining when incubated in rat liver microsomes with NADPH: 75.72%
[3]; 30 min
  Microsomal stability, % remaining: 68.24%
  % of compound remaining when incubated in rat liver microsomes with NADPH: 68.24%
[3]; 45 min
  Microsomal stability, % remaining: 66.08%
  % of compound remaining when incubated in rat liver microsomes with NADPH: 66.08%
[3]; 60 min
  Microsomal stability, % remaining: 61.51%
  % of compound remaining when incubated in rat liver microsomes with NADPH: 61.51%
[3]
  microsomal stability (in words): improved stability over MI-219
  half-life: 0.809 h
[4]
  oral bioavailability / oral pharmacokinetics in rats (in words): much inferior oral pharmacokinetic parameters
  bioavailability: 1.1%
  half-life: 3.2 ± 1.4 h
  AUC(0-t): 101 ± 62 µg·h/mL
  Cmax: 35 ± 23 ng/mL
[5]
  IC50: < 2 µM
[6]; 0 min
  Microsomal stability, % remaining: 100.00%
[6]; 5 min
  Microsomal stability, % remaining: 57.08%
[6]; 10 min
  Microsomal stability, % remaining: 53.92%
[6]; 15 min
  Microsomal stability, % remaining: 49.62%
[6]; 30 min
  Microsomal stability, % remaining: 47.41%
[6]; 45 min
  Microsomal stability, % remaining: 41.18%
[6]; 60 min
  Microsomal stability, % remaining: 41.42%
[6]; human liver microsomes, 0 min
  % of compound remaining when incubated in human liver microsomes with NADPH: 100.00%
[6]; human liver microsomes, 5 min
  % of compound remaining when incubated in human liver microsomes with NADPH: 57.08%
[6]; human liver microsomes, 10 min
  % of compound remaining when incubated in human liver microsomes with NADPH: 53.92%
[6]; human liver microsomes, 15 min
  % of compound remaining when incubated in human liver microsomes with NADPH: 49.62%
[6]; human liver microsomes, 30 min
  % of compound remaining when incubated in human liver microsomes with NADPH: 47.41%
[6]; human liver microsomes, 45 min
  % of compound remaining when incubated in human liver microsomes with NADPH: 41.18%
[6]; human liver microsomes, 60 min
  % of compound remaining when incubated in human liver microsomes with NADPH: 41.42%
[6]
  half-life: 0.187 h
